Test results taken from paper PMC9694544, “Conteltinib (CT-707) in patients with advanced ALK-positive non-small cell lung cancer: a multicenter, open-label, first-in-human phase 1 study” (BMC Medicine, 2022).

Tested on: patients with ALK-positive NSCLC
Assay: Phase 1 safety assessment (TRAEs by CTCAE 4.03, DLT, MTD, RP2D)
Type: in vivo, human
Description: In the dose-escalation phase, the dose was escalated sequentially from a low to a high level with a 3 + 3 dose-escalation scheme based on the modified Fibonacci method. The starting dose for conteltinib was 50 mg orally quaque die (QD). Dose escalation proceeded to the next six cohorts of 100 mg, 200 mg, 300 mg, 450 mg, 600 mg, and 800 mg QD. For each dose, there was a PK lead-in phase where a single dose was given 7 days before cycle 1 day 1. Then, each dose was taken continuously in a 28-day cycle. The first cycle was for dose-limiting toxicity (DLT) investigation. When one of three patients experienced a DLT in a dose cohort, three additional patients were enrolled in the same dose cohort to assess the dose level in a total of six patients. All patients received conteltinib until disease progression, unacceptable toxicity, or withdrawal of consent. Patients received follow-up safety assessments for 30 days (±7 days) after the last conteltinib dose.
In the dose-expansion phase, each dose was taken continuously in a 28-day cycle. At the end of each cycle, a safety evaluation was conducted. If patients met the criteria to enter the next cycle, treatment with conteltinib was continued for subsequent cycles. All patients received conteltinib until disease progression, unacceptable toxicity, or withdrawal of consent. Patients received follow-up safety assessments for 30 days (±7 days) after the last dose of conteltinib.
The safety of conteltinib was assessed in safety set (SS) which was based on the National Cancer Institute Common Terminology Criteria for Adverse Events (CTCAE) version 4.03, laboratory tests, vital signs, ECG, and clinical observations. […] Adverse events (AEs) were judged to be treatment-related or not by investigators.
DLTs were AEs occurring in the first cycle of treatment (28 days) that were attributed to conteltinib, and the criteria were grade 4 neutropenia lasting ≥ 7 days, febrile neutropenia, grade 3 thrombocytopenia, grade 3 non-hematologic toxicity, and any conteltinib-related toxicity resulting in treatment delay > 2 weeks or discontinuation of conteltinib treatment at the assigned dose level. Besides, grade 3 nausea, vomiting, or diarrhea for ≥ 3 days or grade 4 nausea, vomiting, or diarrhea of any duration was considered as a DLT. The MTD was defined as the dose of conteltinib that would be closest to but not higher than a 33% probability of a DLT.

## COc1cc(N2CCC(N3CCN(C)CC3)CC2)ccc1Nc1nc2c(c(Nc3ccccc3S(=O)(=O)NC(C)C)n1)CCN2 [Conteltinib]
50 mg QD (n=2), Grade 1–2
  Patients with any TRAE: 1 (50.0) n (%)
  TRAE ALT elevated: 0 (0.0) n (%)
  TRAE AST elevated: 0 (0.0) n (%)
  TRAE Abdominal pain: 0 (0.0) n (%)
  TRAE Abdominal pain upper: 0 (0.0) n (%)
  TRAE Appetite decreased: 0 (0.0) n (%)
  TRAE Conjugated bilirubin elevated: 0 (0.0) n (%)
  TRAE Diarrhea: 1 (50.0) n (%)
  TRAE Hypercholesterolemia: 0 (0.0) n (%)
  TRAE Hyperglycemia: 0 (0.0) n (%)
  TRAE Hypertriglyceridemia: 0 (0.0) n (%)
  TRAE Hyperuricemia: 0 (0.0) n (%)
  TRAE Hypoalbuminemia: 0 (0.0) n (%)
  TRAE Nausea: 0 (0.0) n (%)
  TRAE Proteinuria: 0 (0.0) n (%)
  TRAE Serum creatinine elevated: 0 (0.0) n (%)
  TRAE Vomiting: 0 (0.0) n (%)
  TRAE Weight loss: 0 (0.0) n (%)
  TRAE γ-GGT elevated: 0 (0.0) n (%)
50 mg QD (n=2), Grade ≥ 3
  Patients with any TRAE: 0 (0.0) n (%)
  TRAE ALT elevated: 0 (0.0) n (%)
  TRAE AST elevated: 0 (0.0) n (%)
  TRAE Abdominal pain: 0 (0.0) n (%)
  TRAE Abdominal pain upper: 0 (0.0) n (%)
  TRAE Appetite decreased: 0 (0.0) n (%)
  TRAE Conjugated bilirubin elevated: 0 (0.0) n (%)
  TRAE Diarrhea: 0 (0.0) n (%)
  TRAE Hypercholesterolemia: 0 (0.0) n (%)
  TRAE Hyperglycemia: 0 (0.0) n (%)
  TRAE Hypertriglyceridemia: 0 (0.0) n (%)
  TRAE Hyperuricemia: 0 (0.0) n (%)
  TRAE Hypoalbuminemia: 0 (0.0) n (%)
  TRAE Nausea: 0 (0.0) n (%)
  TRAE Proteinuria: 0 (0.0) n (%)
  TRAE Serum creatinine elevated: 0 (0.0) n (%)
  TRAE Vomiting: 0 (0.0) n (%)
  TRAE Weight loss: 0 (0.0) n (%)
  TRAE γ-GGT elevated: 0 (0.0) n (%)
100 mg QD (n=8), Grade 1–2
  Patients with any TRAE: 6 (75.0) n (%)
  TRAE ALT elevated: 1 (12.5) n (%)
  TRAE AST elevated: 2 (25.0) n (%)
  TRAE Abdominal pain: 0 (0.0) n (%)
  TRAE Abdominal pain upper: 1 (12.5) n (%)
  TRAE Appetite decreased: 0 (0.0) n (%)
  TRAE Conjugated bilirubin elevated: 1 (12.5) n (%)
  TRAE Diarrhea: 0 (0.0) n (%)
  TRAE Hypercholesterolemia: 1 (12.5) n (%)
  TRAE Hyperglycemia: 1 (12.5) n (%)
  TRAE Hypertriglyceridemia: 1 (12.5) n (%)
  TRAE Hyperuricemia: 1 (12.5) n (%)
  TRAE Hypoalbuminemia: 0 (0.0) n (%)
  TRAE Nausea: 3 (37.5) n (%)
  TRAE Proteinuria: 0 (0.0) n (%)
  TRAE Serum creatinine elevated: 2 (25.0) n (%)
  TRAE Vomiting: 1 (12.5) n (%)
  TRAE Weight loss: 0 (0.0) n (%)
  TRAE γ-GGT elevated: 0 (0.0) n (%)
100 mg QD (n=8), Grade ≥ 3
  Patients with any TRAE: 0 (0.0) n (%)
  TRAE ALT elevated: 0 (0.0) n (%)
  TRAE AST elevated: 0 (0.0) n (%)
  TRAE Abdominal pain: 0 (0.0) n (%)
  TRAE Abdominal pain upper: 0 (0.0) n (%)
  TRAE Appetite decreased: 0 (0.0) n (%)
  TRAE Conjugated bilirubin elevated: 0 (0.0) n (%)
  TRAE Diarrhea: 0 (0.0) n (%)
  TRAE Hypercholesterolemia: 0 (0.0) n (%)
  TRAE Hyperglycemia: 0 (0.0) n (%)
  TRAE Hypertriglyceridemia: 0 (0.0) n (%)
  TRAE Hyperuricemia: 0 (0.0) n (%)
  TRAE Hypoalbuminemia: 0 (0.0) n (%)
  TRAE Nausea: 0 (0.0) n (%)
  TRAE Proteinuria: 0 (0.0) n (%)
  TRAE Serum creatinine elevated: 0 (0.0) n (%)
  TRAE Vomiting: 0 (0.0) n (%)
  TRAE Weight loss: 0 (0.0) n (%)
  TRAE γ-GGT elevated: 0 (0.0) n (%)
200 mg QD (n=3), Grade 1–2
  Patients with any TRAE: 3 (100) n (%)
  TRAE ALT elevated: 0 (0.0) n (%)
  TRAE AST elevated: 1 (33.3) n (%)
  TRAE Abdominal pain: 0 (0.0) n (%)
  TRAE Abdominal pain upper: 0 (0.0) n (%)
  TRAE Appetite decreased: 0 (0.0) n (%)
  TRAE Conjugated bilirubin elevated: 0 (0.0) n (%)
  TRAE Diarrhea: 0 (0.0) n (%)
  TRAE Hypercholesterolemia: 0 (0.0) n (%)
  TRAE Hyperglycemia: 0 (0.0) n (%)
  TRAE Hypertriglyceridemia: 0 (0.0) n (%)
  TRAE Hyperuricemia: 1 (33.3) n (%)
  TRAE Hypoalbuminemia: 0 (0.0) n (%)
  TRAE Nausea: 0 (0.0) n (%)
  TRAE Proteinuria: 0 (0.0) n (%)
  TRAE Serum creatinine elevated: 0 (0.0) n (%)
  TRAE Vomiting: 0 (0.0) n (%)
  TRAE Weight loss: 0 (0.0) n (%)
  TRAE γ-GGT elevated: 0 (0.0) n (%)
200 mg QD (n=3), Grade ≥ 3
  Patients with any TRAE: 0 (0.0) n (%)
  TRAE ALT elevated: 0 (0.0) n (%)
  TRAE AST elevated: 0 (0.0) n (%)
  TRAE Abdominal pain: 0 (0.0) n (%)
  TRAE Abdominal pain upper: 0 (0.0) n (%)
  TRAE Appetite decreased: 0 (0.0) n (%)
  TRAE Conjugated bilirubin elevated: 0 (0.0) n (%)
  TRAE Diarrhea: 0 (0.0) n (%)
  TRAE Hypercholesterolemia: 0 (0.0) n (%)
  TRAE Hyperglycemia: 0 (0.0) n (%)
  TRAE Hypertriglyceridemia: 0 (0.0) n (%)
  TRAE Hyperuricemia: 0 (0.0) n (%)
  TRAE Hypoalbuminemia: 0 (0.0) n (%)
  TRAE Nausea: 0 (0.0) n (%)
  TRAE Proteinuria: 0 (0.0) n (%)
  TRAE Serum creatinine elevated: 0 (0.0) n (%)
  TRAE Vomiting: 0 (0.0) n (%)
  TRAE Weight loss: 0 (0.0) n (%)
  TRAE γ-GGT elevated: 0 (0.0) n (%)
300 mg BID (n=12), Grade 1–2
  Patients with any TRAE: 10 (83.3) n (%)
  TRAE ALT elevated: 3 (25.0) n (%)
  TRAE AST elevated: 3 (25.0) n (%)
  TRAE Abdominal pain: 2 (16.7) n (%)
  TRAE Abdominal pain upper: 3 (25.0) n (%)
  TRAE Appetite decreased: 2 (16.7) n (%)
  TRAE Conjugated bilirubin elevated: 1 (8.3) n (%)
  TRAE Diarrhea: 8 (66.7) n (%)
  TRAE Hypercholesterolemia: 0 (0.0) n (%)
  TRAE Hyperglycemia: 0 (0.0) n (%)
  TRAE Hypertriglyceridemia: 1 (8.3) n (%)
  TRAE Hyperuricemia: 2 (16.7) n (%)
  TRAE Hypoalbuminemia: 4 (33.3) n (%)
  TRAE Nausea: 4 (33.3) n (%)
  TRAE Proteinuria: 3 (25.0) n (%)
  TRAE Serum creatinine elevated: 5 (41.7) n (%)
  TRAE Vomiting: 2 (16.7) n (%)
  TRAE Weight loss: 2 (16.7) n (%)
  TRAE γ-GGT elevated: 3 (25.0) n (%)
300 mg BID (n=12), Grade ≥ 3
  Patients with any TRAE: 1 (8.3) n (%)
  TRAE ALT elevated: 0 (0.0) n (%)
  TRAE AST elevated: 0 (0.0) n (%)
  TRAE Abdominal pain: 0 (0.0) n (%)
  TRAE Abdominal pain upper: 0 (0.0) n (%)
  TRAE Appetite decreased: 0 (0.0) n (%)
  TRAE Conjugated bilirubin elevated: 1 (8.3) n (%)
  TRAE Diarrhea: 0 (0.0) n (%)
  TRAE Hypercholesterolemia: 0 (0.0) n (%)
  TRAE Hyperglycemia: 0 (0.0) n (%)
  TRAE Hypertriglyceridemia: 0 (0.0) n (%)
  TRAE Hyperuricemia: 0 (0.0) n (%)
  TRAE Hypoalbuminemia: 0 (0.0) n (%)
  TRAE Nausea: 0 (0.0) n (%)
  TRAE Proteinuria: 0 (0.0) n (%)
  TRAE Serum creatinine elevated: 0 (0.0) n (%)
  TRAE Vomiting: 0 (0.0) n (%)
  TRAE Weight loss: 0 (0.0) n (%)
  TRAE γ-GGT elevated: 1 (8.3) n (%)
300 mg QD (n=3), Grade 1–2
  Patients with any TRAE: 3 (100) n (%)
  TRAE AST elevated: 1 (33.3) n (%)
  TRAE Abdominal pain: 0 (0.0) n (%)
  TRAE Abdominal pain upper: 0 (0.0) n (%)
  TRAE Appetite decreased: 0 (0.0) n (%)
  TRAE Conjugated bilirubin elevated: 0 (0.0) n (%)
  TRAE Diarrhea: 3 (100) n (%)
  TRAE Hypercholesterolemia: 1 (33.3) n (%)
  TRAE Hyperglycemia: 1 (33.3) n (%)
  TRAE Hypertriglyceridemia: 1 (33.3) n (%)
  TRAE Hyperuricemia: 0 (0.0) n (%)
  TRAE Hypoalbuminemia: 1 (33.3) n (%)
  TRAE Nausea: 1 (33.3) n (%)
  TRAE Proteinuria: 0 (0.0) n (%)
  TRAE Serum creatinine elevated: 1 (33.3) n (%)
  TRAE Vomiting: 1 (33.3) n (%)
  TRAE Weight loss: 3 (100) n (%)
  TRAE γ-GGT elevated: 0 (0.0) n (%)
300 mg QD (n=3), Grade ≥ 3
  Patients with any TRAE: 0 (0.0) n (%)
  TRAE ALT elevated: 0 (0.0) n (%)
  TRAE AST elevated: 0 (0.0) n (%)
  TRAE Abdominal pain: 0 (0.0) n (%)
  TRAE Abdominal pain upper: 0 (0.0) n (%)
  TRAE Appetite decreased: 0 (0.0) n (%)
  TRAE Conjugated bilirubin elevated: 0 (0.0) n (%)
  TRAE Diarrhea: 0 (0.0) n (%)
  TRAE Hypercholesterolemia: 0 (0.0) n (%)
  TRAE Hyperglycemia: 0 (0.0) n (%)
  TRAE Hypertriglyceridemia: 0 (0.0) n (%)
  TRAE Hyperuricemia: 0 (0.0) n (%)
  TRAE Hypoalbuminemia: 0 (0.0) n (%)
  TRAE Nausea: 0 (0.0) n (%)
  TRAE Proteinuria: 0 (0.0) n (%)
  TRAE Serum creatinine elevated: 0 (0.0) n (%)
  TRAE Vomiting: 0 (0.0) n (%)
  TRAE Weight loss: 0 (0.0) n (%)
  TRAE γ-GGT elevated: 0 (0.0) n (%)
450 mg QD (n=14), Grade 1–2
  Patients with any TRAE: 14 (100) n (%)
  TRAE ALT elevated: 10 (71.4) n (%)
  TRAE AST elevated: 9 (64.3) n (%)
  TRAE Abdominal pain: 5 (35.7) n (%)
  TRAE Abdominal pain upper: 5 (35.7) n (%)
  TRAE Appetite decreased: 2 (14.3) n (%)
  TRAE Conjugated bilirubin elevated: 2 (14.3) n (%)
  TRAE Diarrhea: 13 (92.9) n (%)
